Reference: patent US12077503B2, “Substituted cyclic amides and their use as herbicides” (FMC CORPORATION, priority 2015, dated 2024)

Tests used:
Type in all cases: in vivo
[1] = test system: ragweed (common ragweed, Ambrosia elatior); test: Test A preemergence; conditions: Ambrosia artemisiifolia, pre-emergence, 240 h, Preemergence
Summary of the method: (§1)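 Preemergence directed soil spray on seeded pots, or postemergence application to plants 2–10 cm, one- to two-leaf. Solvent mixture non-phytotoxic, with surfactant. Scored ~10 d later, visually, 0–100 vs untreated.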

[2] = test system: ryegrass, Italian (Italian ryegrass, Lolium multiflorum); test: Test A preemergence; conditions: Lolium multiflorum, pre-emergence, 240 h, Preemergence
Summary of the method: as §1

[3] = test system: pigweed (Amaranthus retroflexus); test: Test A preemergence; conditions: Amaranthus retroflexus, pre-emergence, 240 h, Preemergence
[4] = test system: giant foxtail (Setaria faberii); test: Test A preemergence; conditions: Setaria faberi, pre-emergence, 240 h, Preemergence
Summary of the method: as §1

Kochia (Kochia scoparia) [5] = test: Test A preemergence; conditions: Bassia scoparia, pre-emergence, 240 h, Preemergence
Summary of the method: as §1

[6] = test system: barnyardgrass (Echinochloa crus-galli); test: Test A preemergence; conditions: Echinochloa crus-galli, pre-emergence, 240 h, Preemergence
Summary of the method: as §1

[7] = test system: wheat (Triticum aestivum); test: Test A postemergence; conditions: Triticum aestivum, post-emergence, 240 h, Postemergence, read-out: Plant response rating, Wheat
Summary of the method: as §1

[8] = test system: ragweed (common ragweed, Ambrosia elatior); test: Test A postemergence; conditions: Ambrosia artemisiifolia, post-emergence, 240 h, Postemergence, read-out: Plant response rating, Ragweed
Summary of the method: as §1

[9] = test system: Galium (catchweed bedstraw, Galium aparine); test: Test A postemergence; conditions: Galium, post-emergence, 240 h, Postemergence, read-out: Plant response rating, Galium
Summary of the method: as §1

[10] = test system: ryegrass, Italian (Italian ryegrass, Lolium multiflorum); test: Test A postemergence; conditions: Lolium multiflorum, post-emergence, 240 h, Postemergence, read-out: Plant response rating, Ryegrass, Italian
Summary of the method: as §1

[11] = test system: pigweed (Amaranthus retroflexus); test: Test A postemergence; conditions: Amaranthus retroflexus, post-emergence, 240 h, Postemergence, read-out: Plant response rating, Pigweed
Summary of the method: as §1

[12] = test system: giant foxtail (Setaria faberii); test: Test A postemergence; conditions: Setaria faberi, post-emergence, 240 h, Postemergence, read-out: Plant response rating, Foxtail, Giant
Summary of the method: as §1

corn (Zea mays) = test: Test A postemergence; conditions: Zea mays, post-emergence, 240 h, Postemergence
Summary of the method: as §1

Kochia (Kochia scoparia) [13] = test: Test A postemergence; conditions: Bassia scoparia, post-emergence, 240 h, Postemergence, read-out: Plant response rating, Kochia
Summary of the method: as §1

[14] = test system: blackgrass (Alopecurus myosuroides); test: Test A postemergence; conditions: Alopecurus myosuroides, post-emergence, 240 h, Postemergence, read-out: Plant response rating, Blackgrass
Summary of the method: as §1

[15] = test system: barnyardgrass (Echinochloa crus-galli); test: Test A postemergence; conditions: Echinochloa crus-galli, post-emergence, 240 h, Postemergence, read-out: Plant response rating, Barnyardgrass
Summary of the method: as §1

rice (Oryra sativa) = test: Test B flooded paddy test; conditions: Oryza sativa, 250 g ai/ha, Flood; 0 to 100 scale where 0 is no effect and 100 is complete control; read-out: Rice plant response rating
Summary of the method: (§2)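 2-leaf plants; pots flooded 3 cm over soil; cpd added to paddy water; depth held; greenhouse 13–15 d; visual rating vs controls, 0 = no effect, 100 = complete control.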

[16] = test system: ducksalad (Heteranthera limosa); test: Test B flooded paddy test; conditions: Heteranthera limosa, 250 g ai/ha, Flood; 0 to 100 scale where 0 is no effect and 100 is complete control; read-out: Ducksalad plant response rating
Summary of the method: as §2

[17] = test system: sedge, umbrella (small-flower umbrella sedge, Cyperus difformis); test: Test B flooded paddy test; conditions: Cyperus difformis, 250 g ai/ha, Flood; 0 to 100 scale where 0 is no effect and 100 is complete control; read-out: Sedge, Umbrella plant response rating
Summary of the method: as §2

[18] = test system: barnyardgrass (Echinochloa crus-galli); test: Test B flooded paddy test; conditions: Echinochloa crus-galli, 250 g ai/ha, Flood; 0 to 100 scale where 0 is no effect and 100 is complete control; read-out: Barnyardgrass plant response rating
Summary of the method: as §2

[19] = 125 g ai/ha, visual injury after approximately 10 d, 0 to 100 scale where 0 is no effect and 100 is complete control
[20] = 31 g ai/ha, visual injury after approx. 10 d, 0 to 100 scale, 0 no effect, 100 complete control

SMILES: O=C(Nc1ccc(F)c(F)c1F)[C@H]1C(=O)N(C2CC2)CC[C@@H]1c1ccc(F)cc1 [Compound 1004]
- pest or weed control at 31 g/ha ([1]; 31 g ai/ha, 0 to 100 scale where 0 is no effect and 100 is complete control, read-out: Ragweed plant response rating): 0%
- pest or weed control at 125 g/ha ([1]; 125 g ai/ha, visual injury rating after approximately 10 d, read-out: Ragweed plant response rating (0 to 100 scale, 0 is no effect, 100 is complete control)): 0%
- pest or weed control at 31 g/ha ([2]; 31 g ai/ha, 0 to 100 scale where 0 is no effect and 100 is complete control, read-out: Ryegrass, Italian plant response rating): 0%
- pest or weed control at 125 g/ha ([2]; 125 g ai/ha, visual injury rating after approximately 10 d, read-out: Ryegrass, Italian plant response rating (0 to 100 scale, 0 is no effect, 100 is complete control)): 0%
- pest or weed control at 31 g/ha ([3]; 31 g ai/ha, 0 to 100 scale where 0 is no effect and 100 is complete control, read-out: Pigweed plant response rating): 0%
- pest or weed control at 125 g/ha ([3]; 125 g ai/ha, visual injury rating after approximately 10 d, read-out: Pigweed plant response rating (0 to 100 scale, 0 is no effect, 100 is complete control)): 0%
- pest or weed control at 125 g/ha ([4]; 125 g ai/ha, visual injury rating after approximately 10 d, read-out: Foxtail, Giant plant response rating (0 to 100 scale, 0 is no effect, 100 is complete control)): 30%
- pest or weed control at 31 g/ha ([4]; 31 g ai/ha, 0 to 100 scale (0 no effect, 100 complete control), read-out: Plant response rating, Foxtail, Giant): 0%
- pest or weed control at 31 g/ha (Kochia (Kochia scoparia) [5]; 31 g ai/ha, 0 to 100 scale where 0 is no effect and 100 is complete control, read-out: Kochia plant response rating): 0%
- pest or weed control at 125 g/ha (Kochia (Kochia scoparia) [5]; 125 g ai/ha, visual injury rating after approximately 10 d, read-out: Kochia plant response rating (0 to 100 scale, 0 is no effect, 100 is complete control)): 0%
- pest or weed control at 125 g/ha ([6]; 125 g ai/ha, visual injury rating after approximately 10 d, read-out: Barnyardgrass plant response rating (0 to 100 scale, 0 is no effect, 100 is complete control)): 0%
- pest or weed control at 31 g/ha ([6]; 31 g ai/ha, 0 to 100 scale (0 no effect, 100 complete control), read-out: Plant response rating, Barnyardgrass): 0%
- plant injury at 125 g/ha [7, 19]: 0%
- plant injury at 31 g/ha [7, 20]: 0%
- pest or weed control at 125 g/ha [8, 19]: 0%
- pest or weed control at 31 g/ha [8, 20]: 0%
- pest or weed control at 125 g/ha [9, 19]: 0%
- pest or weed control at 31 g/ha [9, 20]: 0%
- pest or weed control at 125 g/ha [10, 19]: 0%
- pest or weed control at 31 g/ha [10, 20]: 0%
- pest or weed control at 125 g/ha [11, 19]: 0%
- pest or weed control at 31 g/ha [11, 20]: 0%
- pest or weed control at 125 g/ha [12, 19]: 0%
- pest or weed control at 31 g/ha [12, 20]: 0%
- Corn plant response rating (crop injury, 0 = no effect, 100 = complete kill) at 125 g/ha (corn (Zea mays); [19]): 0%
- Corn plant response rating (crop injury, 0 = no effect, 100 = complete kill) at 31 g/ha (corn (Zea mays); [20]): 0%
- pest or weed control at 125 g/ha (Kochia (Kochia scoparia) [13]; [19]): 0%
- pest or weed control at 31 g/ha (Kochia (Kochia scoparia) [13]; [20]): 0%
- pest or weed control at 125 g/ha [14, 19]: 0%
- pest or weed control at 31 g/ha [14, 20]: 0%
- pest or weed control at 125 g/ha [15, 19]: 0%
- pest or weed control at 31 g/ha [15, 20]: 0%
- pest or weed control at 250 g/ha (rice (Oryra sativa)): 0%
- pest or weed control at 250 g/ha [16]: 60%
- pest or weed control at 250 g/ha [17]: 0%
- pest or weed control at 250 g/ha [18]: 0%
